# Test results published in the SangsterLogP compilation.
row,Compound,logP
1,CCCOC(C)CO (centres undefined),0.62
2,COC(C)COC(C)COC(C)CO (centres undefined),0.31
3,COCC(C)OCC(C)OCC(C)O (centres undefined),0.31
4,COC(C)COC(C)CO (centres undefined),-0.06
5,CC(CO)Oc1ccccc1 (centres undefined),1.5
6,CC(O)COc1ccccc1 (centres undefined),1.5
7,CCCCOCC(C)OCC(C)O (centres undefined),1.52
8,COC(C)COC(C)COC(C)=O (centres undefined),0.8
9,CCCOC(C)COC(C)CO (centres undefined),0.99
10,COCC(C)O (centres undefined),-0.44
11,CCCCOCC(C)OCC(C)OCC(C)O (centres undefined),1.9

# The remaining lines, values ahead:
row,logP,Compound
1,0.8,COCC(C)OCC(C)OC(C)=O (centres undefined)
2,-0.44,COCCCO
3,1.15,CCCCOCC(C)O (centres undefined)
4,0.43,COC(C)COC(C)=O (centres undefined)
5,1.9,CCCCOC(C)COC(C)COC(C)CO (centres undefined)
6,0.99,CCCOCC(C)OCC(C)O (centres undefined)
7,1.15,CCCCOC(C)CO (centres undefined)
8,0.62,CCCOCC(C)O (centres undefined)
